The NIST ThermoML archive (doi:10.1016/j.tca.2006.01.013)
± gives the expanded uncertainty stated by the source.

Settings: 101.33 kPa, Liquid, Vibrating tube method

NCCN [ethane-1,2-diamine]
mass density (285.15 K): 904.27 ± 0.47 kg/m3
mass density (285.65 K): 903.81 ± 0.47 kg/m3
mass density (286.15 K): 903.34 ± 0.47 kg/m3
mass density (286.65 K): 902.87 ± 0.47 kg/m3
mass density (287.15 K): 902.41 ± 0.47 kg/m3
mass density (287.65 K): 901.94 ± 0.47 kg/m3
mass density (288.15 K): 901.47 ± 0.47 kg/m3
mass density (288.65 K): 901 ± 0.47 kg/m3
mass density (289.15 K): 900.53 ± 0.47 kg/m3
mass density (289.65 K): 900.07 ± 0.47 kg/m3
mass density (290.15 K): 899.6 ± 0.47 kg/m3
mass density (290.65 K): 899.13 ± 0.47 kg/m3
mass density (291.15 K): 898.66 ± 0.46 kg/m3
mass density (291.65 K): 898.19 ± 0.46 kg/m3
mass density (292.15 K): 897.72 ± 0.46 kg/m3
mass density (292.65 K): 897.25 ± 0.46 kg/m3
mass density (293.15 K): 896.78 ± 0.46 kg/m3
mass density (293.65 K): 896.31 ± 0.46 kg/m3
mass density (294.15 K): 895.85 ± 0.46 kg/m3
mass density (294.65 K): 895.38 ± 0.46 kg/m3
mass density (295.15 K): 894.91 ± 0.46 kg/m3
mass density (295.65 K): 894.44 ± 0.46 kg/m3
mass density (296.15 K): 893.97 ± 0.46 kg/m3
mass density (296.65 K): 893.5 ± 0.46 kg/m3
mass density (297.15 K): 893.03 ± 0.46 kg/m3
mass density (297.65 K): 892.56 ± 0.46 kg/m3
mass density (298.15 K): 892.09 ± 0.46 kg/m3
mass density (298.65 K): 891.62 ± 0.46 kg/m3
mass density (299.15 K): 891.14 ± 0.46 kg/m3
mass density (299.65 K): 890.67 ± 0.46 kg/m3
mass density (300.15 K): 890.2 ± 0.46 kg/m3
mass density (300.65 K): 889.73 ± 0.46 kg/m3
mass density (301.15 K): 889.26 ± 0.46 kg/m3
mass density (301.65 K): 888.79 ± 0.46 kg/m3
mass density (302.15 K): 888.32 ± 0.46 kg/m3
mass density (302.65 K): 887.85 ± 0.46 kg/m3
mass density (303.15 K): 887.38 ± 0.46 kg/m3
mass density (303.65 K): 886.9 ± 0.46 kg/m3
mass density (304.15 K): 886.43 ± 0.46 kg/m3
mass density (304.65 K): 885.96 ± 0.46 kg/m3
mass density (305.15 K): 885.49 ± 0.46 kg/m3
mass density (305.65 K): 885.02 ± 0.46 kg/m3
mass density (306.15 K): 884.54 ± 0.46 kg/m3
mass density (306.65 K): 884.07 ± 0.46 kg/m3
mass density (307.15 K): 883.6 ± 0.46 kg/m3
mass density (307.65 K): 883.12 ± 0.46 kg/m3
mass density (308.15 K): 882.65 ± 0.46 kg/m3
mass density (308.65 K): 882.18 ± 0.46 kg/m3
mass density (309.15 K): 881.7 ± 0.46 kg/m3
mass density (309.65 K): 881.23 ± 0.46 kg/m3
mass density (310.15 K): 880.76 ± 0.46 kg/m3
mass density (310.65 K): 880.28 ± 0.46 kg/m3
mass density (311.15 K): 879.81 ± 0.46 kg/m3
mass density (311.65 K): 879.33 ± 0.46 kg/m3
mass density (312.15 K): 878.86 ± 0.46 kg/m3
mass density (312.65 K): 878.38 ± 0.46 kg/m3
mass density (313.15 K): 877.91 ± 0.46 kg/m3
mass density (313.65 K): 877.44 ± 0.46 kg/m3
mass density (314.15 K): 876.96 ± 0.46 kg/m3
mass density (314.65 K): 876.48 ± 0.46 kg/m3
mass density (315.15 K): 876.01 ± 0.46 kg/m3
mass density (315.65 K): 875.53 ± 0.46 kg/m3
mass density (316.15 K): 875.06 ± 0.46 kg/m3
mass density (316.65 K): 874.58 ± 0.46 kg/m3
mass density (317.15 K): 874.11 ± 0.46 kg/m3
mass density (317.65 K): 873.63 ± 0.46 kg/m3
mass density (318.15 K): 873.15 ± 0.46 kg/m3
mass density (318.65 K): 872.68 ± 0.46 kg/m3
mass density (319.15 K): 872.2 ± 0.46 kg/m3
mass density (319.65 K): 871.72 ± 0.46 kg/m3
mass density (320.15 K): 871.25 ± 0.45 kg/m3
mass density (320.65 K): 870.77 ± 0.45 kg/m3
mass density (321.15 K): 870.29 ± 0.45 kg/m3
mass density (321.65 K): 869.81 ± 0.45 kg/m3
mass density (322.15 K): 869.34 ± 0.45 kg/m3
mass density (322.65 K): 868.86 ± 0.45 kg/m3
mass density (323.15 K): 868.38 ± 0.45 kg/m3
mass density (323.65 K): 867.9 ± 0.45 kg/m3
mass density (324.15 K): 867.42 ± 0.45 kg/m3
mass density (324.65 K): 866.94 ± 0.45 kg/m3
mass density (325.15 K): 866.47 ± 0.45 kg/m3
mass density (325.65 K): 865.99 ± 0.45 kg/m3
mass density (326.15 K): 865.51 ± 0.45 kg/m3
mass density (326.65 K): 865.03 ± 0.45 kg/m3
mass density (327.15 K): 864.55 ± 0.45 kg/m3
mass density (327.65 K): 864.07 ± 0.45 kg/m3
mass density (328.15 K): 863.59 ± 0.45 kg/m3
mass density (328.65 K): 863.11 ± 0.45 kg/m3
mass density (329.15 K): 862.63 ± 0.45 kg/m3
mass density (329.65 K): 862.14 ± 0.45 kg/m3
mass density (330.15 K): 861.66 ± 0.45 kg/m3
mass density (330.65 K): 861.18 ± 0.45 kg/m3
mass density (331.15 K): 860.7 ± 0.45 kg/m3
mass density (331.65 K): 860.22 ± 0.45 kg/m3
mass density (332.15 K): 859.74 ± 0.45 kg/m3
mass density (332.65 K): 859.25 ± 0.45 kg/m3
mass density (333.15 K): 858.77 ± 0.45 kg/m3
mass density (333.65 K): 858.29 ± 0.45 kg/m3
mass density (334.15 K): 857.81 ± 0.45 kg/m3
mass density (334.65 K): 857.32 ± 0.45 kg/m3
mass density (335.15 K): 856.84 ± 0.45 kg/m3
mass density (335.65 K): 856.36 ± 0.45 kg/m3
mass density (336.15 K): 855.87 ± 0.45 kg/m3
mass density (336.65 K): 855.39 ± 0.45 kg/m3
mass density (337.15 K): 854.91 ± 0.45 kg/m3
mass density (337.65 K): 854.42 ± 0.45 kg/m3
mass density (338.15 K): 853.93 ± 0.45 kg/m3
mass density (338.65 K): 853.45 ± 0.45 kg/m3
mass density (339.15 K): 852.96 ± 0.45 kg/m3
mass density (339.65 K): 852.48 ± 0.45 kg/m3
mass density (340.15 K): 851.99 ± 0.45 kg/m3
mass density (340.65 K): 851.51 ± 0.45 kg/m3
mass density (341.15 K): 851.02 ± 0.45 kg/m3
mass density (341.65 K): 850.53 ± 0.45 kg/m3
mass density (342.15 K): 850.05 ± 0.45 kg/m3
mass density (342.65 K): 849.56 ± 0.45 kg/m3
mass density (343.15 K): 849.07 ± 0.45 kg/m3
mass density (343.65 K): 848.58 ± 0.45 kg/m3
mass density (344.15 K): 848.1 ± 0.45 kg/m3
mass density (344.65 K): 847.61 ± 0.45 kg/m3
mass density (345.15 K): 847.12 ± 0.45 kg/m3
mass density (345.65 K): 846.63 ± 0.45 kg/m3
mass density (346.15 K): 846.14 ± 0.45 kg/m3
mass density (346.65 K): 845.66 ± 0.45 kg/m3
mass density (347.15 K): 845.17 ± 0.45 kg/m3
mass density (347.65 K): 844.68 ± 0.45 kg/m3
mass density (348.15 K): 844.19 ± 0.45 kg/m3
mass density (348.65 K): 843.7 ± 0.45 kg/m3
mass density (349.15 K): 843.21 ± 0.45 kg/m3
mass density (349.65 K): 842.72 ± 0.45 kg/m3
mass density (350.15 K): 842.23 ± 0.45 kg/m3
mass density (350.65 K): 841.75 ± 0.45 kg/m3
mass density (351.15 K): 841.26 ± 0.45 kg/m3
mass density (351.65 K): 840.76 ± 0.44 kg/m3
mass density (352.15 K): 840.27 ± 0.44 kg/m3
mass density (352.65 K): 839.78 ± 0.44 kg/m3
mass density (353.15 K): 839.29 ± 0.44 kg/m3
mass density (353.65 K): 838.8 ± 0.44 kg/m3
mass density (354.15 K): 838.31 ± 0.44 kg/m3
mass density (354.65 K): 837.81 ± 0.44 kg/m3
mass density (355.14 K): 837.32 ± 0.44 kg/m3
mass density (355.65 K): 836.83 ± 0.44 kg/m3
mass density (356.15 K): 836.33 ± 0.44 kg/m3
mass density (356.64 K): 835.84 ± 0.44 kg/m3
mass density (357.15 K): 835.35 ± 0.44 kg/m3
mass density (357.65 K): 834.85 ± 0.44 kg/m3
mass density (358.14 K): 834.36 ± 0.44 kg/m3
mass density (358.64 K): 833.86 ± 0.44 kg/m3
mass density (359.14 K): 833.37 ± 0.44 kg/m3
mass density (359.64 K): 832.87 ± 0.44 kg/m3
mass density (360.14 K): 832.38 ± 0.44 kg/m3
mass density (360.64 K): 831.88 ± 0.44 kg/m3
mass density (361.14 K): 831.38 ± 0.44 kg/m3
mass density (361.65 K): 830.89 ± 0.44 kg/m3
mass density (362.15 K): 830.39 ± 0.44 kg/m3
mass density (362.65 K): 829.89 ± 0.44 kg/m3
mass density (363.15 K): 829.4 ± 0.44 kg/m3
